From US11235000B2, “Calcium peroxides nanoparticles as adjuvant therapy” (UNIVERSITY OF ULSTER, priority 2017, dated 2022)

Columns and labels:
[1] = system: human BxPC-3 pancreatic cancer cells; experiment: In vitro PDT of hypoxic cells, MTT cell viability; type: cell-based; settings: PDT treatment alone (RB 1 μM + 532 nm LED 30 sec)
Description: Having determined the ability of the CaO2 NPs to improve the light induced ROS generation of Rose Bengal in a simulated hypoxic environment, the next step was to determine if this improved ROS generation would also result in increased Rose Bengal mediated PDT killing of human BxPC-3 pancreatic cancer cells.
BxPc3 cells were seeded in a 96 well plate at a density of 5×10^4 cells per well. The cells were cultured in an anaerobic cabinet (O2/CO2/N2, 0.1:5:94.9 v/v/v) for 3 hours to generate a hypoxic environment and then spiked with RB (1 μM) and incubated for a further 3 hours under anaerobic conditions. This concentration of RB is much lower than normally used in PDT cell-based studies (˜5 μM) and was chosen to enable a moderate PDT effect in the absence of CaO2 NPs so that any beneficial effect provided by the NPs could be determined (Chan et al., Tissue engineering, 13(1): 73-85, 2007). The cells were then incubated with an ethanol: PBS (50:50) solution of the NPs (50 μM) for 5 min before being exposed to light from a 532 nm emitting LED for 30 sec. The NP solution was then removed, the cells washed with fresh PBS and incubated in fresh media under normoxic conditions for a further 21 hours before cell viability was determined using a MTT assay. […]

[2] = system: Mia-PaCa 2 xenograft tumours; experiment: PDT efficacy in vivo, tumour volume; parameters: species or system SCID mice; settings: PDT alone (intratumoural Rose Bengal 100 μL, 0.1 mg/mL + white light 3 min); 5 days after treatment
Description: All animals employed in this study were treated humanely and in accordance with licenced procedures under the UK Animals (Scientific Procedures) Act 1986. Mia-PaCa 2 xenograft tumours were established as described above. Once the tumours had reached an average volume of 254±17 mm^3 the mice were randomly separated into 4 groups (n=5). Group 1 involved untreated animals, group 2 the PDT only group, Group 3 the 1-CaO2 NPs only group and group 4 the PDT+1-CaO2 NPs group. For group 2, mice received an intratumoural injection (100 μL) of Rose Bengal (0.1 mg/mL) in a PBS solvent and the tumour was then exposed to a LED emitting white light for 3 min (0.05 J/cm^2). Group 3 received a tail vein injection (100 μL) of 1-CaO2 NPs in a PBS vehicle (2 mg/mL) while group 4 also received a tail vein injection (100 μL) of 1-CaO2 NPs in a PBS vehicle (2 mg/mL) in addition to an intratumoural injection (100 μL) of Rose Bengal (0.1 mg/mL) and light exposure as described for group 2. The tumour volume was measured daily over the course of 6 days using callipers.

## O=C([O-])c1c(Cl)c(Cl)c(Cl)c(Cl)c1-c1c2cc(I)c(=O)c(I)c-2oc2c(I)c([O-])c(I)cc12.[Na+].[Na+] [Rose Bengal]
[1]
  reduction in viability: 10.8%
[2]
  difference in tumour volume relative to untreated control animals: no significant difference
